# Laboratory results: paper PMC8347176, “Novel High Affinity Sigma-1 Receptor Ligands from Minimal Ensemble Docking-Based Virtual Screening” (International Journal of Molecular Sciences, 2021)
# Counter-ions that a name gives are not always drawn.
# Test system: S1R
# Test: not given
# Parameters: method as in PMID 16463398
# Settings: cited from earlier work
row,SMILES,KiS2R/KiS1R
1,COc1cc(CCN2CCN(CCCc3ccccc3)CC2)ccc1OCCF [fluoroethyl analog of S1R agonist SA4503],14.1

# Test system: not given
# Test: not given
# Settings: not given
row,SMILES,melting point [°C]
1,"Cl.NC(CC(=O)NCc1cc(F)cc(C(F)(F)F)c1)c1ccccc1 (stereo not shown) [L4, 3-Amino-N-(3-fluoro-5-(trifluoromethyl)benzyl]-3-phenylpropanamide hydrochloride]",180 to 182

# Biological target: T1, sigma-2 receptor (S2R) (Rattus norvegicus, UniProt Q5U3Y7)
# T1 construct: from tissue; host or cells: rat (male Wistar-Harlan) liver membrane homogenate
# T1 sequence (Q5U3Y7 1-176): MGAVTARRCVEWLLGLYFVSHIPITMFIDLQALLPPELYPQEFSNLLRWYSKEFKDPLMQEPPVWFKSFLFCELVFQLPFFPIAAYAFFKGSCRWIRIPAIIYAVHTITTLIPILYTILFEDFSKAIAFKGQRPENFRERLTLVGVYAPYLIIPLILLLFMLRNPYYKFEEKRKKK
# Test: Sigma-2 receptor competitive radioligand binding assay with [3H]DTG in rat liver membranes, S1R masked with 100 nM (+)-pentazocine
# Settings: not given
# Protocol: Male Wistar-Harlan rats (n = 10, 225–250 g) and guinea pigs (n = 10, 350–400 g) were handled according to the European Communities Council Directive (2010/63/EU) and to the Regulations on Animal Protection (40/2013. (II. 14.) Korm. r.) of Hungary. The researchers did the best effort to minimize the number of animals and their suffering. Preparation of guinea pig and rat liver homogenates was performed according to a previous method with a slight modification. Euthanized male guinea pig and rats were killed by decapitation, and their livers were removed rapidly. […] The protein content of the samples was measured by the Bradford method and samples were diluted in assay buffer to obtain the appropriate amount for the assay.
# (§1) The results of the competition binding studies are reported as means ± S.E.M. of at least three independent experiments each performed in duplicate. In competition binding studies, the inhibitory constants (Ki) were calculated from the inflection points of the displacement curves using nonlinear least-square curve fitting and the Cheng–Prusoff equation, Ki = EC50/(1 + [ligand]/Kd). All data and curves were analyzed by GraphPad Prism 5.0 (San Diego, CA, USA).
row,SMILES,displacement of [3H]DTG (partial)
1,CC(C)=CCN1CC[C@]2(C)c3cc(O)ccc3C[C@H]1[C@H]2C [(+)-pentazocine],70–80%
2,"COCCCC/C(=N\OCCN)c1ccc(C(F)(F)F)cc1 [fluvoxamine, reference compound]",70–80%

# Biological target: T2, sigma-1 receptor (S1R) (Cavia porcellus, UniProt Q60492)
# T2 construct: Guinea pig liver tissue preparation abundantly contains sigma-1 receptor as compared to other tissues; from tissue; host or cells: guinea pig liver membrane homogenate
# Test: Sigma-1 receptor competitive radioligand binding assay with [3H](+)-pentazocine in guinea pig liver membranes
# Settings: read-out: Measured Ki
# Protocol: Male Wistar-Harlan rats (n = 10, 225–250 g) and guinea pigs (n = 10, 350–400 g) were handled according to the European Communities Council Directive (2010/63/EU) and to the Regulations on Animal Protection (40/2013. (II. 14.) Korm. r.) of Hungary. The researchers did the best effort to minimize the number of animals and their suffering. Preparation of guinea pig and rat liver homogenates was performed according to a previous method with a slight modification. Euthanized male guinea pig and rats were killed by decapitation, and their livers were removed rapidly. Minced fresh livers were homogenized in ice-cold homogenization buffer (10 mM NaH2PO4 pH 7.4, 0.32 M sucrose, 1 mM MgSO4, 10 μg/mL leupeptin, 1 μg/mL pepstatin A, 5 μg/mL soybean trypsin inhibitor, 0.5 mM EGTA, 1 mM AEBSF) using a Braun Teflon-glass homogenizer at the highest rpm for 30 s. The homogenate was centrifuged at 17,000× g for 10 min (4 °C). Supernatant was recentrifuged at 100,000× g for 60 min at 4 °C. The resulting pellet was resuspended in 10 volumes homogenization buffer, homogenized by a glass homogenizer and stored in aliquots at −80 °C. The protein content of the samples was measured by the Bradford method and samples were diluted in assay buffer to obtain the appropriate amount for the assay.
# Binding assays for the sigma-1 receptor were performed at 37 °C for 90 min in a 50 mM Tris–HCl binding buffer (pH 8.0) in plastic tubes in a total assay volume of 1 mL that contained 0.5 mg/mL of a membrane protein. […] The incubation was terminated by diluting the samples with an ice-cold wash buffer (50 mM of Tris–HCl, pH 8.0), followed by repeated washing and rapid filtration through Whatman GF/B glass fiber filters (Whatman Ltd., Maidstone, UK) presoaked with 0.1% polyethyleneimine. Filtration was performed with a 24-well Brandel Cell Harvester (Gaithersburg, MD, USA). Filters were air-dried and immersed into Ultima Gold MV scintillation cocktail, and then radioactivity was measured with a TRI-CARB 2100TR liquid scintillation analyzer (Packard, Perkin Elmer, Waltham, MA, USA).
# as §1
# T2 sequence (Q60492 whole entry): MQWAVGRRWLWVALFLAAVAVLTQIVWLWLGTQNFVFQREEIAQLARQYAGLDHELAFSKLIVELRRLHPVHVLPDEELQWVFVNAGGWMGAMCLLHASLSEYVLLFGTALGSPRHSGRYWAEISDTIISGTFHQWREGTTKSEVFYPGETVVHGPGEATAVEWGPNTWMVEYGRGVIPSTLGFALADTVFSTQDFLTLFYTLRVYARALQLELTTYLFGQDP
row,SMILES,Ki [nM]
1,"NN1C(=O)C2C3C=CC(C3)C2NC12CCN(Cc1ccccc1)CC2 (racemic) [L5, (±)-diendo-3′-amino-1-benzyl-5′,8′-methano-4′a,5′,8′,8′a-tetrahydrospiro[piperidine-4,2′(1′H)-quinazolin]-4′(3′H)-one]",463
2,"CCOc1cc2c(cc1OCC)[C@H]1CCN[C@@H](c3ccc(N(C)C)cc3)N1CC2 (relative stereo) [L10, (4R*,11bR*)-9,10-Diethoxy-4-[4-(dimethylamino)phenyl]-1,3,4,6,7,11b-hexahydro-2H-pyrimido[6,1-a]isoquinoline]",2150
3,"CCOc1cc2c(cc1OCC)[C@H]1[C@H](CSc3ccc(Cl)cc3)CN1CC2 (relative stereo) [L12, (1R*,9bR*)-1-{[(4-Chlorophenyl)thio]methyl}-7,8-diethoxy-1,4,5,9b-tetrahydro-2H-azeto[2,1a]-isoquinoline]",3270
4,"COc1cc2c(cc1OC)C(CCNCc1ccccc1)NCC2 (stereo not shown) [L1, N-Benzyl-6,7-dimethoxy-1,2,3,4-tetrahydro-1-isoquinolineethanamine dihydrochloride]",32
5,"NC(CC(=O)NCc1cccc(C(F)(F)F)c1F)c1ccccc1 (stereo not shown) [L2, 3-Amino-N-(2-fluoro-3-(trifluoromethyl)benzyl]-3-phenylpropanamide hydrochloride]",91
6,"COc1ccc(OCC(O)CN2CCc3ccccc3C2)cc1 (stereo not shown) [L3, 1-[(4-Methoxyphenoxy)methyl]-2-(1,2,3,4-tetrahydroisoquinolin-2-yl)ethanol]",110
7,"Cl.NC(CC(=O)NCc1cc(F)cc(C(F)(F)F)c1)c1ccccc1 (stereo not shown) [L4, 3-Amino-N-(3-fluoro-5-(trifluoromethyl)benzyl]-3-phenylpropanamide hydrochloride]",420
8,"Cn1c2c(c3ccccc31)CCNC2CNC(=O)OCc1ccccc1 (stereo not shown) [L6, N-Benzyloxycarbonyl-(9-methyl-2,3,4,9-tetrahydro-1H-pyrido[3,4-b]indol-1-yl)methanamine]",1040
9,"CC1(C)C2CC(O)C(O)(CNCc3ccccc3)CC21 [L7, (1S,3R,4R,6R)-3-(benzylamino)methyl)-7,7-dimethylbicyclo[4.1.0]heptane-3,4-diol]",1380
10,"CC(CN)C(=O)NCc1cccc(C(F)(F)F)c1F (stereo not shown) [L8, 3-Amino-N-(2-fluoro-3-(trifluoromethyl)benzyl]-2-methylpropanamide trifluoroacetate]",1530
11,"O=C(NCC1NCCc2c1[nH]c1ccccc21)OCc1ccccc1 (stereo not shown) [L9, N-Benzyloxycarbonyl-(2,3,4,9-tetrahydro-1H-pyrido[3,4-b]indol-1-yl)methanamine]",1720

# Same assay, conditions: read-out: S1R Ki ± S.E.M.
row,SMILES,Ki [nM]
1,"COCCCC/C(=N\OCCN)c1ccc(C(F)(F)F)cc1 [fluvoxamine, reference compound]",31 ± 3
